In PMC8596301 (Frontiers in Pharmacology, 2021):
Like-named read-outs stand apart in the source and are kept apart here.

Experiments:
human ORs = test system: human ORs; design: method as in Kruegel et al., 2016; settings: ref Kruegel et al., 2016; cited from earlier work
WT and δOR KO mice = assay: Seizure assay (modified Racine scale); type: in vivo, mouse
Experimental: To assess drug-induced seizurogenic activity, mice were placed in a clear plastic cylinder (25 cm diameter, 35 cm height) immediately following drug injection and their activity was recorded in a well-lit, quiet room using iSpy camera software (iSpyConnect.com). A recording time of 90 min was chosen for the tested compounds based on previous observations of seizures time lengths in experiments with 30 mg∙kg^−1 paynantheine. If animals were not presenting with seizure activity after 30 min, the recording time was shortened accordingly. Seizure severity was scored based on the modified Racine scale (half-scores allowed) in bins of 3–5 min. Onset to first seizure symptom, onset to highest Racine score, and highest Racine score were also assessed. A summary of all statistical analyses for the seizure data can be found in Supplemental Table S3. In brief, seizure-like behavior between wild type and δOR KO mice was compared with a two-tailed, unpaired t test with Welch’s correction on area under the curve data generated from graphing the highest Racine score per time bin over 90 min for each mouse.

[1] = design: method as in Kamble et al., 2021; settings: rats; oral; 1.1 mg∙kg^−1; ref Kamble et al., 2021; cited from earlier work
FLAG-mouse κOR [2] = target: T1, FLAG-mouse κOR (Mus musculus, UniProt P33534); design: method as in Gutridge et al., 2020; settings: cited from earlier work
T1 construct: expressed in transfected cells; host or cells: HEK cells (HEK-293), transient, co-transfected with pGloSensor22F

C57Bl/6 male mice [3] = assay: Brief and extended conditioned place preference paradigms; type: in vivo, mouse
From the text: Mice were conditioned to drugs and vehicle as described previously in two-chamber conditioned place preference (CPP) boxes in a counterbalanced, unbiased approach for either two drug conditioning sessions over 2 days (brief) or four drug conditioning sessions over 8 days (extended) ([Váradi et al., 2015]; [Gutridge et al., 2020]). For brief and extended conditioned place preference experiments, separate groups of mice were used for each drug dose. A summary of all statistical analyses for the CPP data can be found in Supplemental Table S4. In brief, all CPP data were analyzed with two-tailed, paired t tests comparing time spent on the drug-paired side pre- and post-conditioning.

κOR = κOR (Homo sapiens, UniProt P41145); assay: biochemical; type: binding
HA-mouse µOR [4] = target: T2, HA-mouse µOR (Mus musculus, UniProt P42866); settings: cited from earlier work
T2 construct: expressed in transfected cells; host or cells: HEK cells (HEK-293), transient, co-transfected with pGloSensor22F

δOR KO mice = assay: Two-bottle choice alcohol paradigm (drinking in the dark, 10% ethanol vs. water); type: in vivo, mouse; settings: for Ethanol consumption: δOR KO male mice
Experimental: (§1) Mice were subject to drinking in the dark (DID), limited access (4 h per day), two-bottle choice (10% ethanol vs. water) paradigm in which they were trained to consume alcohol voluntarily as previously described ([Rhodes et al., 2005]; [van Rijn and Whistler, 2009]). Mice reached stable alcohol consumption within 3 weeks of training, and after the third week, drug injections were administered prior to the daily drinking session on Friday. Drug’s effect on alcohol consumption was measured as the change in Friday’s alcohol intake minus the average alcohol intake from the preceding Tuesday–Thursday of that week (g∙kg^−1). A summary of all statistical analyses for the drinking data can be found in Supplemental Tables S6–S9. In brief, results from two-bottle choice alcohol consumption paradigms were assessed for statistical significance using RM two-way ANOVA for main effects of drug dose, treatment day, and drug dose × treatment day; Sidak’s multiple comparisons (MC) between alcohol consumption baseline (Tuesday–Thursday average) vs. treatment day consumption (Friday) were then used as the post hoc test for each drug dose tested. The same RM two-way ANOVA and Sidak’s MC post hoc analyses were used for water consumption and ethanol preference data. […] Sex differences between baseline data were evaluated using RM two-way ANOVA for main effects of sex, treatment baseline, and sex × treatment baseline; Sidak’s multiple comparisons (MC) between male and female mice were then used as the post hoc test for each treatment week tested.

C57Bl/6 male mice [5] = assay: Tail flick thermal nociception assay; type: in vivo, mouse
wild-type C57Bl/6 mice [6] = settings: 10 and 30 mg∙kg^−1; male mice; ref Gutridge et al., 2020; cited from earlier work
C57Bl/6 male mice [7] = settings: ref Gutridge et al., 2020; cited from earlier work
FLAG-mouse δOR [8] = target: T3, FLAG-mouse δOR (Mus musculus, UniProt P32300); design: method as in Gutridge et al., 2020; settings: cited from earlier work
T3 construct: expressed in transfected cells; host or cells: HEK cells (HEK-293), transient, co-transfected with pGloSensor22F

C57Bl/6 male mice [9] = assay: Locomotor evaluation (ambulation)
μOR = μOR (Homo sapiens, UniProt P35372); assay: biochemical; type: binding
[10] = Maximum tolerated dose (side effect profile); settings: C57Bl/6, mouse, in vivo, sc, 10 mg∙kg^−1
FLAG-mouse κOR [11] = target: T1, FLAG-mouse κOR; assay: cell-based
wild-type C57Bl/6 mice [12] = assay: Two-bottle choice alcohol paradigm (drinking in the dark, 10% ethanol vs. water); type: in vivo, mouse
Experimental: as §1

HA-mouse µOR [13] = target: T2, HA-mouse µOR; assay: cell-based
δOR = δOR (Homo sapiens, UniProt P41143); assay: biochemical; type: binding
FLAG-mouse δOR [14] = target: T3, FLAG-mouse δOR; assay: cell-based
[15] = ref Gutridge et al., 2020, read-out: cAMP IC50
[16] = HEK293, read-out: cAMP α (% inhibition at maximal efficacy)
[17] = 10 mg∙kg^−1 s.c., WT male and female mice
[18] = 7-hydroxyspeciogynine 10 mg∙kg^−1 s.c., WT male mice

T2 sequence (P42866 whole entry): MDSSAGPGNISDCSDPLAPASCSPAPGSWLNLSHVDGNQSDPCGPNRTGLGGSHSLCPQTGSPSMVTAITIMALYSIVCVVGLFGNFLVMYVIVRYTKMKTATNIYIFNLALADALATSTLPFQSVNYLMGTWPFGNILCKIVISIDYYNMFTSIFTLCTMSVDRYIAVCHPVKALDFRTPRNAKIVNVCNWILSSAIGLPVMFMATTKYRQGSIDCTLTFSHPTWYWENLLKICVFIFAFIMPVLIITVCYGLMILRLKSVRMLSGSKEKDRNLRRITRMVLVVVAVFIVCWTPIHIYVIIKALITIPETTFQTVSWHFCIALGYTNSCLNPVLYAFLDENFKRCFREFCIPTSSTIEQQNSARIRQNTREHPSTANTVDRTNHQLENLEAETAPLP
T1 sequence (P33534 whole entry): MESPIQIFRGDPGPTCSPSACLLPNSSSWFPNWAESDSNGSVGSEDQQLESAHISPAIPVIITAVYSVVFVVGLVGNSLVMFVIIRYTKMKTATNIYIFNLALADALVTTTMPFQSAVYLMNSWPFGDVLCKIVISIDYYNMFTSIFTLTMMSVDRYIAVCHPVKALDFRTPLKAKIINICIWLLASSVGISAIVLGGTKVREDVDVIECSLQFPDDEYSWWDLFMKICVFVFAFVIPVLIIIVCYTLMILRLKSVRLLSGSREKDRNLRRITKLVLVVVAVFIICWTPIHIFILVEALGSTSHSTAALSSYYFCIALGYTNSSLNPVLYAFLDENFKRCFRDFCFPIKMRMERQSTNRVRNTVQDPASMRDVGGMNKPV
Sequence of κOR (P41145 whole entry): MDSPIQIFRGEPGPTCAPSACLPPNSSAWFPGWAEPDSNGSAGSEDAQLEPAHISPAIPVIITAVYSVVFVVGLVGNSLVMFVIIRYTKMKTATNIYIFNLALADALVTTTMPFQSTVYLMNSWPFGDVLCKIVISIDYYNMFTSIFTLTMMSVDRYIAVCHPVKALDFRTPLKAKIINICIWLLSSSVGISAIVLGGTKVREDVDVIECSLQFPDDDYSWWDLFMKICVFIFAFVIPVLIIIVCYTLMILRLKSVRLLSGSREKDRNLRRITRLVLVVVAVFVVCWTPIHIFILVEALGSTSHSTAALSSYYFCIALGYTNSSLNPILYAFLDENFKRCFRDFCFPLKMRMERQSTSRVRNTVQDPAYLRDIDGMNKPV
T3 sequence (P32300 whole entry): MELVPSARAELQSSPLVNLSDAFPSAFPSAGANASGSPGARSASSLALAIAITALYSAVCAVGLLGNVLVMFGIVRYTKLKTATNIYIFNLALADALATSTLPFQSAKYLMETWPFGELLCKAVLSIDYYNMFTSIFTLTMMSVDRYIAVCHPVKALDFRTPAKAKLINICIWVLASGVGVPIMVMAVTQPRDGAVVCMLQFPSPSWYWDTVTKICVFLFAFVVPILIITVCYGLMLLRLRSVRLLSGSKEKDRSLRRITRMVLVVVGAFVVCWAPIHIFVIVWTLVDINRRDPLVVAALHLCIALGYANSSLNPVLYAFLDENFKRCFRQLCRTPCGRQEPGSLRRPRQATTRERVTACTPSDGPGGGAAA
Sequence of μOR (P35372 whole entry): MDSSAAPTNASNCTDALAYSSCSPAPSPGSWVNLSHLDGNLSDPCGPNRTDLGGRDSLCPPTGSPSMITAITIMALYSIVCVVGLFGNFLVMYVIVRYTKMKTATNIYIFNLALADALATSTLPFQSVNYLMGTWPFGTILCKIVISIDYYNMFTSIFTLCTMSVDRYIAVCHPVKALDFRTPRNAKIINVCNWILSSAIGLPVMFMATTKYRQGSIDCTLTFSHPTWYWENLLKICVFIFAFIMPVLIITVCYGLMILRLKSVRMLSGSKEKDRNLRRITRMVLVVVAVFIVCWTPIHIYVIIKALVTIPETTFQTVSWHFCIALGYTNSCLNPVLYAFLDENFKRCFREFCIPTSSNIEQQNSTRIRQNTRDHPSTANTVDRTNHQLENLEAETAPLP
Sequence of δOR (P41143 whole entry): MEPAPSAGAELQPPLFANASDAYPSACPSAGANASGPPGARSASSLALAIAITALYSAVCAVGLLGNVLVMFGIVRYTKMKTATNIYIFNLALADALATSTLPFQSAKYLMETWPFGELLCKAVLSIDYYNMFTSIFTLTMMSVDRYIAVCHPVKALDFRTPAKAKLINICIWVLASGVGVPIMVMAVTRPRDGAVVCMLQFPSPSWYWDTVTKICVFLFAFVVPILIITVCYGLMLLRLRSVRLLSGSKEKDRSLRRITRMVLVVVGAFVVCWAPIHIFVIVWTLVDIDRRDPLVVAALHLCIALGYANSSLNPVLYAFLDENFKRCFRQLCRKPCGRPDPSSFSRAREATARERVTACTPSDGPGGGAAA

## C=C[C@H]1CN2CCc3c([nH]c4cccc(OC)c34)[C@@H]2C[C@@H]1/C(=C\OC)C(=O)OC [PAYN, paynantheine]
Human ORs
  Functional activity at human ORs: weak antagonist
WT and δOR KO mice; 30 mg∙kg^−1 i.p., wild type and δOR KO mice
  Convulsive behaviors, Racine level: 1–2
[1]
  Detectability in plasma over time: undetectable after an hour
  Tmax in plasma: 10 min
FLAG-mouse κOR [2]; normalized to U50,488, ref Gutridge et al., 2020
  cAMP α: 95 ± 5
FLAG-mouse κOR [2]; [15]
  IC50: 7.43 µM
C57Bl/6 male mice [3]; 10 mg∙kg^−1 i.p., four drug conditioning sessions, male mice
  Conditioned place preference, extended CPP paradigm: did not produce CPP nor CPA
C57Bl/6 male mice [3]; 10 mg∙kg^−1 i.p., two drug conditioning sessions, male mice
  Conditioned place preference, brief CPP paradigm: modest conditioned place aversion
C57Bl/6 male mice [3]; 10 and 30 mg∙kg^−1 i.p. pretreatment, morphine 6 mg∙kg^−1, brief CPP
  Block of morphine CPP: neither dose blocks morphine CPP
κOR; Binding Ki (µM)
  Ki: 4 µM
κOR; Binding pKi
  Ki: 3.16 µM
HA-mouse µOR [4]
  cAMP pIC50: 5.4 ± 0.1
  cAMP α: 100 ± 0
HA-mouse µOR [4]; read-out: cAMP IC50
  IC50: 4.08 µM
δOR KO mice; paynantheine 10 mg∙kg^−1, male δOR KO mice
  Alcohol consumption: decreases alcohol consumption in δOR KO mice
C57Bl/6 male mice [5]; 10 mg∙kg^−1 i.p., morphine 6 mg∙kg^−1 s.c.
  Block of morphine analgesia: does not block morphine analgesia
C57Bl/6 male mice [5]; 30 mg∙kg^−1 i.p., morphine 6 mg∙kg^−1 s.c.
  Block of morphine analgesia: blocks morphine analgesia
C57Bl/6 male mice [5]; 10 and 30 mg∙kg^−1 i.p., 10 min before morphine s.c.
  Block of antinociception produced by 6 mg∙kg^−1 morphine: dose-dependently blocked antinociception
C57Bl/6 male mice [5]; 10 and 30 mg∙kg^−1 i.p., 30 min
  Antinociceptive effect (agonist mode, %MPE): neither the 10 nor 30 mg∙kg^−1 dose displayed meaningful antinociceptive effects
wild-type C57Bl/6 mice [6]
  Alcohol intake: dose-dependently decreases alcohol intake
C57Bl/6 male mice [7]
  Hyperlocomotion at effective dose: does not produce hyperlocomotion
FLAG-mouse δOR [8]; normalized to Leu-enkephalin, ref Gutridge et al., 2020
  cAMP α: 64 ± 13
FLAG-mouse δOR [8]; [15]
  IC50: 3.55 µM
FLAG-mouse δOR [8]; ref Gutridge et al., 2020
  cAMP pIC50: 5.6 ± 0.2
C57Bl/6 male mice [9]; 10 and 30 mg∙kg^−1 i.p., data from CPP conditioning sessions
  Effect on hyperlocomotion induced by 6 mg∙kg^−1 morphine: dose-dependently attenuated hyperlocomotion
μOR
  Ki: 0.52 µM

## CC[C@H]1CN2CC[C@@]3(O)C(=Nc4cccc(OC)c43)[C@@H]2C[C@@H]1/C(=C\OC)C(=O)OC [7OH SPG, 7-Hydroxyspeciogynine]
[10]
  MTD at 10 days: ≥ 10 mg/kg
FLAG-mouse κOR [11]
  IC50: 7.71 µM
FLAG-mouse κOR [11]; [16]
  Emax: 80 ± 20%
WT and δOR KO mice; 10 mg∙kg^−1 s.c., 30 min
  Seizures: nor induce noticeable seizures
C57Bl/6 male mice [3]; 10 mg∙kg^−1 s.c., four conditioning sessions, male WT mice
  Conditioned place preference, extended protocol: did not develop conditioned place preference
κOR; Binding Ki (µM)
  Ki: 1.63 µM
wild-type C57Bl/6 mice [12]; 3 mg∙kg^−1 s.c., WT female mice
  Ethanol consumption, water consumption, ethanol preference: did not significantly modulate ethanol consumption, water consumption, or ethanol preference
wild-type C57Bl/6 mice [12]; 3 mg∙kg^−1 s.c., WT male and female mice
  Δ ethanol intake, males and females pooled: significant ethanol modulation effect
wild-type C57Bl/6 mice [12]; [17]
  Δ ethanol preference, males and females pooled: significant decrease in ethanol preference
  Δ water consumption, males and females pooled: concomitant increase in water consumption was evident
wild-type C57Bl/6 mice [12]; 10 mg∙kg^−1 s.c., WT mice
  Decrease in ethanol consumption: 1.2 ± 0.2 g/kg
  Reduction in ethanol consumption: 40 ± 7%
wild-type C57Bl/6 mice [12]; [18]
  Ethanol preference: corresponding decrease in ethanol preference
  Water consumption: concomitant increase in water consumption
wild-type C57Bl/6 mice [12]; 7-hydroxyspeciogynine 3 and 10 mg∙kg^−1 s.c., wild-type male mice
  Alcohol intake: reduced alcohol intake in a dose-dependent manner
δOR KO mice; 7-hydroxyspeciogynine 3 mg∙kg^−1 s.c.
  Ethanol consumption: lack of effect
δOR KO mice; 7-hydroxyspeciogynine 10 mg∙kg^−1 s.c.
  Ethanol consumption: significantly decreased ethanol consumption
C57Bl/6 male mice [5]; 10 mg∙kg^−1 s.c., then morphine 6 mg∙kg^−1 s.c. 10 min later
  Block of morphine analgesia: did not produce antinociception (paired, two-tailed t test, t = 0.6193, df = 9, p = 0.5511) or block morphine analgesia
C57Bl/6 male mice [5]; 10 mg∙kg^−1 s.c., male mice
  Antinociception (agonist mode): did not produce antinociception
HA-mouse µOR [13]
  IC50: 0.61 µM
HA-mouse µOR [13]; [16]
  Emax: 66 ± 6%
δOR
  Ki: 0.46 µM
C57Bl/6 male mice [9]; 10 mg∙kg^−1 s.c., data from CPP experiment
  Ambulation: did not significantly alter ambulation
FLAG-mouse δOR [14]
  IC50: 2.27 µM
FLAG-mouse δOR [14]; [16]
  Emax: 76 ± 6%
